# Measurements published in US20250235429A1, “TREATMENT OF DISEASES VIA ADMINISTRATION OF BUNTANETAP AND AN ANTIDIABETIC AGENT” (ANNOVIS BIO, INC., priority 2024, published 2025).
# Entries after “also recorded” stand apart in the source; their conditions may differ. Marks after values point to notes of the source that are not given here.
# Key:
# [1] = test system: APP in SH-SY-5Y human neuroblastoma cells; test: APP in vitro (Western blot) in neuroblastoma cells; type: cell-based; conditions: SH-SY-5Y cells; 0, 0.1, 1, 5 and 10 μM
# APP and its fragments [2] = conditions: APP/PS1 transgenic mice; cited from earlier work
# [3] = test system: traumatic brain injury rats; conditions: cited from earlier work
# tau [4] = conditions: unpublished observation, Peter Davies Laboratory; cited from earlier work
# [5] = test system: APP, Tau, and aSYN in the cerebrospinal fluid (CSF) of MCI subjects; conditions: cited from earlier work
# [6] = test system: hippocampal slices APP/PS1 transgenic mice; test: Electrophysiological study: long-term potentiation (LTP) in hippocampal slices; type: in vivo
# Experimental: Animals: Heterozygous double transgenic mice expressing both human APP (K670N:M671L) and human PS1 (M146L) (line 6.2) and their wild-type non-transgenic littermates, both males and females, were used for these experiments. They were obtained by a breeding colony maintained at the animal facility of Columbia University. They were genotyped through PCR on tail samples. Animals were injected i.p. from the age of […] for 1 month prior to starting behavioral assessment which lasted for 2 weeks during which treatment continued. Behavioral assessment examined spatial and associative memory. Finally, mice were sacrificed for electrophysiological assessment of synaptic function.
# Mice were coded to blind investigators with respect to genotype and treatment. Results were expressed with Standard Error of the Mean (SEM). Level of significance was set for p<0.05. Results were analyzed by ANOVA analysis with post-hoc correction with the combination or genotype as main effect. Experiments were designed in a balanced fashion, and mice were trained and tested at each of the different conditions in 3 or 4 separate experiments.
# Mice were i.p. injected with the drug from the age of 8 weeks prior to plaque appearance until euthanasia for collecting slices at the age of 14-16 weeks. The treatment with Buntanetap was daily, whereas the treatment with dulaglutide was twice a week.
# Electrophysiological analysis was performed on 400 μm hippocampal slices, cut with a tissue chopper and maintained in an interface chamber at 29° C. for 90 min prior to recording. Briefly, CA1 fEPSPs were recorded by placing both the stimulating and the recording electrodes in CA1 stratum radiatum. Basal synaptic transmission was assayed, either by plotting the stimulus voltages against slopes of fEPSP, or by plotting the peak amplitude of the fiber volley against the slope of the fEPSP. For LTP experiments, a 15 min baseline was recorded every min at an intensity that evokes a response ˜35% of the maximum evoked response. LTP was induced using θ-burst stimulation (4 pulses at 100 Hz, with the bursts repeated at 5 Hz and each tetanus including 3 ten-burst trains separated by 15 see). Data was subjected to statistical analyses to determine the effects of combination on inhibiting synaptic dysfunction.
# APP and its fragments [7] = test: APP in vivo in APP/PS1 transgenic AD mice (hippocampus)
# From the text: FIG. 2, APP in vivo. […] GAPDH and Synaptophysin were loading controls. FIG. 2 also includes a collection of graphs showing relative density of APP plotted against control and time after buntanetap treatment; relative density of CTFβ plotted against control and time after buntanetap treatment; relative density of CTFα plotted against control and time after buntanetap treatment; A042 levels in brain tissue plotted against control and time after buntanetap treatment; and A040 levels in brain tissue plotted against control and time after buntanetap treatment. Finally, FIG. 2 also includes a Western blot showing levels of APP, NSB, CTFβ, and CTFα after buntanetap treatment over time (minutes).
# rat acute glaucoma model = conditions: cited from earlier work
# [8] = test system: patients with mild to moderate AD; test: Phase II/III dose-ranging study of buntanetap in mild to moderate AD (ADAS-Cog 11); type: in vivo, human
# Experimental: A randomized, double-blind, placebo-controlled Phase II/III study trial investigating the efficacy, safety, and tolerability of buntanetap in patients with mild to moderate AD was conducted. This was a dose-ranging study where patients received either one of three doses of buntanetap (7.5 mg, 15 mg, or 30 mg) or placebo on top of their standard of care for 12 weeks. In this study, over 700 patients were screened, a total of 353 patients were enrolled, and 325 patients completed the study across 54 sites in the US. The study included mild to moderate AD patients whose Mini Mental State Examination (MMSE) scores at baseline ranged from 14 to 24. (www.clinicaltrials.gov (NCT05686044)).
# Beyond safety, the trial assessed the changes in two co-primary endpoints: Alzheimer's Disease Assessment Scale-Cognitive Subscale 11 (ADAS-Cog 11) and Alzheimer's Disease Cooperative Study Clinician's Global Impression of Change (ADCS-CGIC), which assess cognition and activities of daily living. The study monitored for safety and collected plasma to measure several biomarkers to assess the disease state, potential disease progression, and treatment effects.
# [9] = test system: Ts65dn mouse model of Down syndrome (DS); conditions: cited from earlier work
# aSYN = conditions: transgenic Parkinson's animals, in the brain and in the gut; cited from earlier work
# [10] = cited from earlier work
# tau [11] = conditions: Human tau mice; unpublished observation; cited from earlier work
# [12] = test system: APP, Tau, and aSYN in the cerebrospinal fluid (CSF) of MCI subjects; test: CSF biomarkers in MCI subjects before and after 10 days of buntanetap (proof of mechanism); conditions: mildly cognitive impaired patients, 10 days of administration (FIG. 3)
structure (smiles),measurement,setting,value
"CN1CC[C@]2(C)c3cc(OC(=O)Nc4ccccc4)ccc3N(C)C12 (stereo partly drawn) [Buntanetap, (3aR)-1,3a,8-trimethyl-1,2,3,3a,8,8a-hexahydropyrrolo[2,3-b]indol-5-yl phenylcarbamate]",APP in relation to Actin standard (Western blot),[1],lowers APP in vitro in a dose-dependent manner
same,levels of APP and all its fragments,APP and its fragments [2],lowers
same,inflammation,[3]; rat brain after TBI,lowered
same,impaired synaptic transmission,[3]; rat striatum after traumatic brain injury (TBI),Normalized
same,nerve cells,[3]; rat substantia Ingra after TBI,protected
same,memory and learning,[3]; traumatic brain injury rats,Preserved
same,tau in vitro,tau [4],lowers
same,"levels of APP, Tau, and aSYN in the cerebrospinal fluid (CSF)","[5]; MCI subjects, 4×60 mg/day",normalized
same,CSF A342,[5]; MCI subjects,trend to lower
same,"CSF levels of sAPPa, sAPPP, t-tau, p-tau, and specific inflammatory markers",[5]; MCI subjects,significantly lowered
same,inflammation,[5]; human CSF of MCI subjects,lowered
same,% Improvement (Residual Potential),"[6]; APP/PS1, Buntanetap 1 mg/kg",4.8%
same,Residual Potential (mean),"[6]; APP/PS1, Buntanetap 1 mg/kg i.p. daily",141.55
same,Residual Potential (mean),"[6]; APP/PS1, Buntanetap 10 mg/kg i.p. daily",213.56
same,% Improvement (Residual Potential),"[6]; APP/PS1, Buntanetap 10 mg/kg, 100% = wt veh minus APP/PS1 veh",90.5%
same,impairment of synaptic plasticity measured through Long-term potentiation (LTP),"[6]; APP/PS1 mice, Buntanetap 1 mg/Kg and/or dulaglutide 0.1 mg/Kg",did not ameliorate
same,time after the last dose for which APP and all related peptides in hippocampus were reduced,APP and its fragments [7]; APP/PS1 mice,at least 9 hours
same,APP and its fragments in hippocampus,APP and its fragments [7]; APP/PS1 transgenic AD mice,reduced
same,retina,rat acute glaucoma model; acute glaucoma,Preserved
same,nerve cells,rat acute glaucoma model; rat acute glaucoma model,protected
same,Non-Responders (Number),[8]; 7.5 mg,5
same,Non-Responders (Percentage),[8]; 7.5 mg,(26.32%)
same,Responders (Number),[8]; 7.5 mg,14
same,Responders (Percentage),[8]; 7.5 mg,(73.68%)**
same,Non-Responders (Number),[8]; 15 mg,7
same,Non-Responders (Percentage),[8]; 15 mg,(28.00%)
same,Responders (Number),[8]; 15 mg,18
same,Responders (Percentage),[8]; 15 mg,(72.00%)**
same,Non-Responders (Number),[8]; 30 mg,3
same,Non-Responders (Percentage),[8]; 30 mg,(12.50%)
same,Responders (Number),[8]; 30 mg,21
same,Responders (Percentage),[8]; 30 mg,(87.50%)***
same,difference in the proportion of participants who improved relative to placebo,[8]; 30 mg group,three-fold
same,improvement in ADAS-Cog 11 scores in each treatment dose relative to placebo,"[8]; patients with mild AD, 7.5, 15, 30 mg, 12 weeks",significantly higher improvement
same,improvement in cognition,[8]; population with confirmed early AD (FIG. 2B),dose-dependent improvement
same,memory and learning,[9],Restored
same,aSYN in vivo,aSYN,lowers
same,half-life in CSF,[10]; MCI subjects,> 12 h
same,tolerability,[10]; doses up to 4×60 mg daily X 10 days,well tolerated
same,concentration in brain relative to plasma,[10]; in vivo,about 8 times
same,terminal half-life,"[10]; plasma, all doses, biphasic clearance",4.3 to 4.7 h
same,tau in vivo,tau [11],lowers
same,"APP/Abeta, tau/phospho-tau and alpha-synuclein in the spinal fluid",[12],reduction; also recorded: normalized
